Data taken from ChEMBL document CHEMBL6096690, “Synthesis and Biological Evaluation of Peripheral HTR2A Antagonists for Colorectal Cancer” (J Med Chem, 2025).
Activity calls are given as the source filed them. The calls are words filed in the database; no cut-off is given here.

How the values were obtained:
SW-620 [1] = assay: Antiproliferative activity against human SW620 cells assessed as inhibition of cell proliferation incubated for 24 to 48 hrs by CCK-8 assay; format: functional, cell-based; details: dose 1.5-12.5 µM, time 24-48 hrs
HCT-116 [2] = assay: Antitumor activity against human HCT-116 cells expressing firefly luciferase xenografted in male athymic nude BALB/c mouse assessed as decrease in bioluminescent signals at 50 mg/kg, ip administered once daily by bioluminescence imaging analysis; format: functional, organism-based
HCT-116 [3] = assay: Antitumor activity against human HCT-116 cells xenografted in male athymic nude BALB/c mouse assessed as increase in cleaved caspase 3 expression at 10 mg/kg, ip measured after 19 days by Immunohistochemical analysis; format: functional, organism-based; details: time 19.0 day
HCT-116 [4] = assay: Antitumor activity against human HCT-116 cells xenografted in male athymic nude BALB/c mouse assessed as tumor growth inhibition at 10 mg/kg, ip measured after 19 days relative to control; format: functional; details: HCT-116, 456 h, time 19 day, read-out: TGI
[5] = Toxicity in male athymic nude BALB/c mouse xenografted with human HCT-116 cells assessed as change in body weight at 1 to 10 mg/kg, ip administered once daily and measured after 19 days; format: organism-based; details: in vivo, 456 h, dose 1-10 mg/kg, time 19 day
[6] = Drug concentration in male ICR mouse plasma at 10 mg/kg, ip measured after 1 hr; format: ADME, organism-based
[7] = target: 5-hydroxytryptamine receptor 6 (Homo sapiens) (UniProt P50406); assay: Inhibition of 5HTR6 (unknown origin) at 1 uM relative to control
5-hydroxytryptamine receptor 6 (Homo sapiens), sequence (P50406 whole entry): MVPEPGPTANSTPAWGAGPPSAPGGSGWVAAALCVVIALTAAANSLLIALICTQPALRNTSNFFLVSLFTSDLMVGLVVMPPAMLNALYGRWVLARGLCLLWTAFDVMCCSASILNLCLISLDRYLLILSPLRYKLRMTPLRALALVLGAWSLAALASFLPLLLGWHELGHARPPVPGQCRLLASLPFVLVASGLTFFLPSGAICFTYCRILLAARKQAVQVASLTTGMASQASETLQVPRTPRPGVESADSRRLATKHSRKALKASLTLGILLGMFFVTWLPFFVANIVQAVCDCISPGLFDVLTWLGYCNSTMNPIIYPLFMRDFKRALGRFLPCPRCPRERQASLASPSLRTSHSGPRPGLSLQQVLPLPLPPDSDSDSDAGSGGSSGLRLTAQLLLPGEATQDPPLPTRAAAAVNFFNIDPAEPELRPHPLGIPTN

[8] = Microsomal stability in mouse liver microsomes assessed as parent compound remaining measured after 30 mins; format: ADME, Microsome; details: read-out: Stability
HCT-116 [9] = assay: Induction of apoptosis in human HCT-116 cells assessed as upregulation of total P53 protein expression at 5 to 10 uM incubated for 24 hrs by Western blotting analysis; format: functional, cell-based; details: dose 5-10 µM
HCT-116 [10] = assay: Antiproliferative activity against human HCT-116 cells assessed as inhibition of cell proliferation incubated for 24 to 48 hrs by CCK-8 assay; format: functional, cell-based; details: dose 1.5-12.5 µM, time 24-48 hrs
[11] = Microsomal stability in rat liver microsomes assessed as parent compound remaining measured after 30 mins; format: ADME, Microsome; details: read-out: Stability
RKO = assay: Antiproliferative activity against human RKO cells assessed as inhibition of cell proliferation incubated for 24 to 48 hrs by CCK-8 assay; format: functional, cell-based; details: dose 1.5-12.5 µM, time 24-48 hrs
[12] = Microsomal stability in human liver microsomes assessed as parent compound remaining measured after 30 mins; format: ADME, Microsome; details: read-out: Stability
HCT-116 [13] = assay: Induction of apoptosis in human HCT-116 cells assessed as increase in cleaved caspase 3 expression incubated for 24 hrs by Western blotting analysis; format: functional, cell-based; details: dose 5-10 µM
SW-620 [14] = assay: Antitumor activity against human SW620 cells xenografted in male athymic nude BALB/c mouse assessed as tumor growth inhibition at 10 mg/kg, ip administered once daily relative to control; format: functional; details: read-out: TGI
[15] = target: 5-hydroxytryptamine receptor 2B (Homo sapiens, UniProt P41595); assay: Inhibition of 5HTR2B (unknown origin) at 1 uM relative to control
5-hydroxytryptamine receptor 2B, sequence (P41595 whole entry): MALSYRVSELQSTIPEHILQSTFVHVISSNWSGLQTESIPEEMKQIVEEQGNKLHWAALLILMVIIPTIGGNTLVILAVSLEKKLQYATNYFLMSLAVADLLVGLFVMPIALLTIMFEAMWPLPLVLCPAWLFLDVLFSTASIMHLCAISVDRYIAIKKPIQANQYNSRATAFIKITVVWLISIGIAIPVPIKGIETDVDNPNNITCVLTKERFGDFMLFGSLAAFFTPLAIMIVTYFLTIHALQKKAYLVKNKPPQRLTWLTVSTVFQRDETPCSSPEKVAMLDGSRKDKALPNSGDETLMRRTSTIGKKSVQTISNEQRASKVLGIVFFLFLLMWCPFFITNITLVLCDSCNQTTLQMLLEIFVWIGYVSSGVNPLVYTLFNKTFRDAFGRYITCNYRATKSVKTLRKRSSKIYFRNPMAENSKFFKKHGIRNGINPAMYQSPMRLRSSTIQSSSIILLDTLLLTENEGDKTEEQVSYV

SW480 = assay: Antiproliferative activity against human SW480 cells assessed as inhibition of cell proliferation incubated for 24 to 48 hrs by CCK-8 assay; format: functional, cell-based; details: dose 1.5-12.5 µM, time 24-48 hrs
HCT-116 [16] = assay: Antiproliferative activity against human HCT-116 cells assessed as inhibition of cell proliferation at 1.5 to 12.5 uM by CCK-8 assay; format: functional, cell-based; details: dose 1.5-12.5 µM, time […]
[17] = Drug concentration in male ICR mouse brain at 10 mg/kg, ip measured after 3 hr; format: ADME, organism-based; details: read-out: Ct
[18] = Half life in male mouse at 2 mg/kg, iv; format: ADME, organism-based; details: in vivo
CYP2C19 = CYP2C19 (Homo sapiens, UniProt P33261); assay: Inhibition of CYP2C19 (unknown origin) at 10 uM relative to control; format: ADME
CYP2C19, sequence (P33261 whole entry): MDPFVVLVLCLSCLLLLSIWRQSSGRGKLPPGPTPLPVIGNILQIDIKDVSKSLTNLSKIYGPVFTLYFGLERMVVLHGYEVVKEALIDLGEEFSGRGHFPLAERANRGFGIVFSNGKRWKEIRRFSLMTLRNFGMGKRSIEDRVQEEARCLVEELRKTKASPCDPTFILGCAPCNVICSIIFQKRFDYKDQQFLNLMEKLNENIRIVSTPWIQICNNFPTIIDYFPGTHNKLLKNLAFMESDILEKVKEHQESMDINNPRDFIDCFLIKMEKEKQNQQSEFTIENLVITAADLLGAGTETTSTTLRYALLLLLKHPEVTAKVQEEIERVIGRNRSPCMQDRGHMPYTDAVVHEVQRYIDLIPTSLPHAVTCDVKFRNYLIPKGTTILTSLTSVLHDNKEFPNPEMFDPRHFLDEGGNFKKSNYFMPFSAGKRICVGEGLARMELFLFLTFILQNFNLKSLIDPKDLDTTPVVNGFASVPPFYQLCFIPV

SW-620 [19] = assay: Induction of apoptosis in human SW620 cells assessed as increase in cleaved caspase 3 expression incubated for 24 hrs by Western blotting analysis; format: functional, cell-based; details: dose 5-10 µM
HCT-116 [20] = assay: Induction of cell cycle arrest at sub-G1 phase in human HCT-116 cells assessed as increase in p21 protein expression at 5 to 10 uM incubated for 24 hrs by Western blotting analysis; format: functional, cell-based; details: dose 5-10 µM
HCT-116 [21] = assay: Induction of apoptosis in human HCT-116 cells assessed as increase in apoptotic cells at 5 to 10 uM incubated for 24 hrs by Annexin V/propidium iodide staining based FACS assay; format: functional, cell-based; details: dose 5-10 µM
CCD-18Co = assay: Cytotoxicity against human CCD-18Co cells assessed as inhibition of cell proliferation at 1.5 to 12.5 uM by CCK-8 assay; format: toxicity, cell-based; details: dose lower 1.5 µM, time lower 24 hrs, dose upper 12.5 µM, time upper 48 hrs
[22] = Volume of distribution at steady state in male mouse at 2 mg/kg, iv; format: ADME, organism-based; details: in vivo, read-out: Vdss
[23] = target: 5-hydroxytryptamine receptor 2A (Homo sapiens, UniProt P28223); assay: Antagonist activity at 5HTR2A (unknown origin) assessed as inhibition of 5-HTR2A
5-hydroxytryptamine receptor 2A, sequence (P28223 whole entry): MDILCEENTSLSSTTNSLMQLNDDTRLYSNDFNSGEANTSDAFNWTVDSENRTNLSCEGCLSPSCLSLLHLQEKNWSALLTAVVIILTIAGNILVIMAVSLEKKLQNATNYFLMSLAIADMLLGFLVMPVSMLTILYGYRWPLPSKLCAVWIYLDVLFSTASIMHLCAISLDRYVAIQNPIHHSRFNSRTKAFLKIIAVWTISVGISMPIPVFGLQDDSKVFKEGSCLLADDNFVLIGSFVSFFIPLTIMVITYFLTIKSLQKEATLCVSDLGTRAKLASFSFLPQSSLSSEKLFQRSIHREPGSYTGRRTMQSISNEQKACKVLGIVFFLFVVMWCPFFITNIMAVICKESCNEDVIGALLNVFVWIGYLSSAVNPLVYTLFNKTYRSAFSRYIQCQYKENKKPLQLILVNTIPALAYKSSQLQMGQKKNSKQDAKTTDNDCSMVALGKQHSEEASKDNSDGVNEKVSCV

SW-620 [24] = assay: Induction of apoptosis in human SW620 cells assessed as increase in apoptotic cells at 5 to 10 uM incubated for 24 hrs by Annexin V/propidium iodide staining based FACS assay; format: functional, cell-based; details: dose 5-10 µM
SW-620 [25] = assay: Antitumor activity against human SW620 cells xenografted in male athymic nude BALB/c mouse assessed as tumor growth inhibition administered intraperitoneally once daily relative to control; format: functional; details: dose 10-50 mg/kg, route ip

With `Cl.Cl.O=C(NCc1ccc(OCC(O)CN2CCN(c3noc4cc(F)ccc34)CC2)cc1)N(Cc1ccc(F)cc1)C1CCNCC1` (centres undefined) the Activity (SW-620 [1]) was “Dose-dependent-effect”, the Activity (HCT-116 [2]) was “Active” and the Activity (HCT-116 [3]) was “Active”. The inhibition in vivo at 10 mg/kg (HCT-116 [4]) was 53.3%, the Activity [5] was “Non-toxic” and the concentration at 1 h [6] was 463 ng/mL. The inhibition [7] was -5%, the remaining at 0.5 h [8] was > 99% and the Activity (HCT-116 [9]) was “Active”. For the same molecule, the Activity (HCT-116 [10]) was “Dose-dependent-effect”, the remaining at 0.5 h [11] was 95.3% and the Activity (RKO) was “Dose-dependent-effect”. For the same molecule, the remaining at 0.5 h [12] was > 99%, the Activity (HCT-116 [13]) was “Dose-dependent-effect” and the inhibition in vivo at 10 mg/kg (SW-620 [14]) was 30.8%. The inhibition [15] was 84.8%, the Activity (SW480) was “Dose-dependent-effect” and the Activity (HCT-116 [16]) was “Time-dependent-effect”. The concentration at 3 h [17] was < 0.5 ng/g, the half-life [18] was 13.9 h and the inhibition at 10 µM (CYP2C19) was 21%. The Activity (SW-620 [19]) was “Dose-dependent-effect”, the Activity (HCT-116 [20]) was “Active” and the Activity (HCT-116 [21]) was “Active”. The Activity (CCD-18Co) was “Time-dependent-effect”, the Vd [22] was 83.9 L/kg and the IC50 [23] was 42.8 nM. For the same molecule, the Activity (SW-620 [24]) was “Active” and the Activity (SW-620 [25]) was “Dose-dependent-effect”.
